# Reference: the NIST ThermoML archive (doi:10.1021/je2001649)
# Numbers after ± are expanded uncertainties.
# Settings: Crystal; visual observation
smiles,measurement,value
c1ccc2c(c1)Nc1ccccc1S2 [10H-phenothiazine],Normal melting temperature,183 ± 1 °C
